Measured values published in patent US9765075B2, “Substituted bridged urea analogs as sirtuin modulators” (GLAXOSMITHKLINE LLC, priority 2013, dated 2017).
Read-outs that look alike come from different tables or passages of the source.

Biological target: T1, SIRT1 (Homo sapiens, UniProt Q96EB6)
T1 sequence (Q96EB6 1-747): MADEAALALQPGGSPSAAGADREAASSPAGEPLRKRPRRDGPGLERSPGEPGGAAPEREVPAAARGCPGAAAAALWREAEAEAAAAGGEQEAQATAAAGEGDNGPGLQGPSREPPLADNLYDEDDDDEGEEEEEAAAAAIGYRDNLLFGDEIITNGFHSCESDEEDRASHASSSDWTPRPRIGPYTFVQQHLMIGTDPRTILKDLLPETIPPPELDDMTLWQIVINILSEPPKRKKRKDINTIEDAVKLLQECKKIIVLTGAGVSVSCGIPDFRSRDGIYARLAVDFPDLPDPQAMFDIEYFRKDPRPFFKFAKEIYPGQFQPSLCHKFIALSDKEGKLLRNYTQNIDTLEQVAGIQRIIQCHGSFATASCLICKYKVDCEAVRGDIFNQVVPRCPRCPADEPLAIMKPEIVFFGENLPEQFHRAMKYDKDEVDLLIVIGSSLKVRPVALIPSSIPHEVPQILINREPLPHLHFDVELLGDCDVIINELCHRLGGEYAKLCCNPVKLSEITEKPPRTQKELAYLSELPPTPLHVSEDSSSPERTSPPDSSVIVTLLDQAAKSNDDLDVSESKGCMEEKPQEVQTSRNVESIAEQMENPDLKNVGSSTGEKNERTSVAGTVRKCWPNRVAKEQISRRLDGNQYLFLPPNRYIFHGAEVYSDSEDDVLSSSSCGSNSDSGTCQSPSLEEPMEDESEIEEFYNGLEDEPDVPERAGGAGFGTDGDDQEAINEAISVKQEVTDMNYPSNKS
Assay: Trp mass spectrometry assay (SIRT1 activation)
Type: biochemical
Conditions: for Emax: percent maximum fold activation of SIRT1, read-out: Tryp % Fold Act
Description: Mass spectrometry based assays were used to identify modulators of SIRT1 activity. […] The peptide was labeled with the fluorophore 5TMR (excitation 540 nm/emission 580 nm) at the C-terminus. The sequence of the peptide substrate was based on p53 with several modifications. In addition, the methionine residue naturally present in the sequence was replaced with the norleucine because the methionine may be susceptible to oxidation during synthesis and purification. The Trp based assay utilized a peptide having an amino acid residues as follows: Ac-R-H-K-K(Ac)-W-NH2 (SEQ ID NO: 2).
The Trp mass spectrometry assay was conducted as follows. 0.5 μM peptide substrate and 120 μM βNAD^+ were incubated with 10 nM SIRT1 for 25 minutes at 25° C. in a reaction buffer (50 mM HEPES pH 7.5, […] NaCl, 1 mM DTT, 0.05% BSA). The SIRT1 protein was obtained by cloning the SirT1 gene into a T7-promoter containing vector, which was then expressed in BL21(DE3) bacterial cells and purified as described in further detail below. Test compound was added at varying concentrations to this reaction mixture and the resulting reactions were monitored. After the 25 minute incubation with SIRT1, 10 μL of 10% formic acid was added to stop the reaction. The resulting reactions were sealed and frozen for later mass spec analysis. The relative SIRT1 activity was then determined by measuring the amount of 0-acetyl-ADP-ribose (OAADPR) formed (or, alternatively, the amount of deacetylated Trp peptide generated) by the NAD-dependent sirtuin deacetylation reaction in the presence of varying concentrations of the test compound versus control reactions lacking the test compound. The degree to which the test agent activated deacetylation by SIRT1 was expressed as EC1.5 (i.e., the concentration of compound required to increase SIRT1 activity by 50% over the control lacking test compound), and Percent Maximum Activation (i.e., the maximum activity relative to control (100%) obtained for the test compound).
A control for activation of sirtuin activity was conducted using 10 nM of sirtuin protein, with 1 μL of DMSO in place of compound, to determine the amount of deacetylation of the substrate at a given time point within the linear range of the assay. This time point was the same as that used for test compounds and, within the linear range, the endpoint represents a change in velocity.
For the above assay, SIRT1 protein was expressed and purified as follows. The SirT1 gene was cloned into a T7-promoter containing vector and transformed into BL21(DE3). The protein was expressed by induction with 1 mM IPTG as an N-terminal His-tag fusion protein at 18° C. overnight and harvested at 30,000×g. Cells were lysed with lysozyme in lysis buffer (50 mM Tris-HCl, 2 mM Tris[2-carboxyethyl] phosphine (TCEP), 10 μM ZnCl2, 200 mM NaCl) and further treated with sonication for 10 min for complete lysis. The protein was purified over a Ni-NTA column (Amersham) and fractions containing pure protein were pooled, concentrated and run over a sizing column (Sephadex S200 26/60 global). The peak containing soluble protein was collected and run on an Ion-exchange column (MonoQ). Gradient elution (200 mM-500 mM NaCl) yielded pure protein. This protein was concentrated and dialyzed against dialysis buffer (20 mM Iris-HCl, 2 mM TCEP) overnight. The protein was aliquoted and frozen at −80° C. until further use.

[1] = concentration of test compound that results in 150% activation of SIRT1, Trp peptide substrate
[2] = Trp mass spectrometry assay, EC1.5 = concentration giving 150% activation of SIRT1
[3] = Trp mass spectrometry assay, EC1.5 = concentration of test compound that results in 150% activation of SIRT1

Structure (SMILES) | Tryp AVG EC1.5 (μM) [1] | Emax (Trp peptide substrate) | Emax (Trp mass spectrometry assay) | Tryp AVG EC1.5 (μM) [2] | Tryp AVG EC1.5 (μM) [3]
Cc1cc(NC(=O)N2c3nc(N4CCCC(C(F)(F)F)C4)ccc3N3CC[C@H]2C3)cc(C)n1 (stereo partly shown) [Example 231] | B (EC1.5 1-25 μM) | ≥ 150% | – | – | –
O=C(Nc1cccc(C2=CCOCC2)n1)N1c2nc(-c3cccc(C(F)(F)F)c3)ccc2N2CC[C@H]1C2 [Example 658] | – | – | ≥ 150% | A (EC1.5<1 μM) | –
O=C(Nc1ccncc1F)N1c2nc(C3CCCC(C(F)(F)F)C3)ccc2N2CC[C@H]1C2 (stereo partly shown) [Example 148] | – | – | ≥ 150% | – | B (EC1.5 1-25 μM)
CCc1cccc(CC)c1NC(=O)N1c2nc(-c3cccc(C(F)(F)F)c3)ccc2N2CC[C@H]1C2 [Example 71] | – | – | < 150% | – | –
NC(=O)c1ccc(NC(=O)N2c3nc(-c4cccc(C(F)(F)F)c4)ccc3N3CC[C@H]2C3)cc1 [Example 659] | – | – | ≥ 150% | A (EC1.5<1 μM) | –
O=C(Nc1cccc(-c2cnco2)c1)N1c2cc(-c3cccc(C(F)(F)F)c3)ccc2N2CC[C@H]1C2 [Example 786] | – | – | ≥ 150% | B (EC1.5 1-25 μM) | –
COc1cc(NC(=O)N2c3nc(-c4cccc(C(F)(F)F)c4)ccc3N3CC[C@H]2C3)ncn1 [Example 34] | – | – | ≥ 150% | – | –
CCc1nnc(NC(=O)N2c3nc(-c4cccc(C(F)(F)F)c4)ccc3N3CC[C@H]2C3)s1 [Example 647] | – | – | ≥ 150% | A (EC1.5<1 μM) | –
COc1cc(NC(=O)N2c3nc(-c4cccc(Cl)c4)ccc3N3CC[C@H]2C3)nc(OC)n1 [Example 103] | – | – | ≥ 150% | – | B (EC1.5 1-25 μM)
O=C(Nc1cnccn1)N1c2nc(-c3cncc(C(F)(F)F)c3)ccc2N2C[C@@H](O)[C@H]1C2 [Example 695] | – | – | ≥ 150% | B (EC1.5 1-25 μM) | –
O=C(Nc1ccccn1)N1c2nc(N3CCCC(C(F)(F)F)C3)ccc2N2CCC[C@@H]1C2 (stereo partly shown) [Example 300] | C (EC1.5>25 μM) | < 150% | – | – | –
O=C1CN2C[C@H]1N(C(=O)Nc1cccc(-c3cnco3)c1)c1nc(-c3cccc(C(F)(F)F)c3)ccc12 [Example 692] | – | – | ≥ 150% | A (EC1.5<1 μM) | –
N#Cc1ccccc1-c1ccc2c(n1)N(C(=O)Nc1ccccn1)[C@H]1CCCN2C1 [Example 449] | B (EC1.5 1-25 μM) | ≥ 150% | – | – | –
COc1cncc(NC(=O)N2c3nc(N4CCCC(C(F)(F)F)C4)ccc3N3CCC[C@@H]2C3)c1 (stereo partly shown) [Example 309] | B (EC1.5 1-25 μM) | ≥ 150% | – | – | –
O=C(Nc1ccc(F)cn1)N1c2nc(-c3cccc(N4CCCC4)c3)ccc2N2CC[C@H]1C2 [Example 131] | – | – | ≥ 150% | – | B (EC1.5 1-25 μM)
O=C(NCCc1ccncc1)N1c2nc(-c3cccc(C(F)(F)F)c3)ccc2N2CC[C@H]1C2 [Example 613] | B (EC1.5 1-25 μM) | ≥ 150% | – | – | –
COc1cc(NC(=O)N2c3nc(-c4cccc(C(F)(F)F)n4)ccc3N3CC[C@H]2C3)ncn1 [Example 339] | B (EC1.5 1-25 μM) | ≥ 150% | – | – | –
NCCCc1ccc(NC(=O)N2c3nc(-c4cccc(C(F)(F)F)c4)ccc3N3CCC[C@H]2C3)cc1-c1cnco1 [Example 767] | – | – | ≥ 150% | A (EC1.5<1 μM) | –
CS(=O)(=O)c1cncc(-c2ccc3c(n2)N(C(=O)Nc2ccncn2)[C@H]2CCCN3C2)c1 [Example 379] | A (EC1.5<1 μM) | ≥ 150% | – | – | –

More lines, now with the values ahead:

Tryp AVG EC1.5 (μM) [1] | Emax (Trp peptide substrate) | Emax (Trp mass spectrometry assay) | Tryp AVG EC1.5 (μM) [2] | Tryp AVG EC1.5 (μM) [3] | Structure (SMILES)
– | – | ≥ 150% | – | – | O=C(Nc1ccncn1)N1c2nc(-c3cccc(C(F)(F)F)c3)ccc2N2CC[C@H]1C2 [Example 12]
– | – | ≥ 150% | A (EC1.5<1 μM) | – | O=C(Nc1ccc(Br)c(-c2cnco2)c1)N1c2nc(-c3cccc(C(F)(F)F)c3)ccc2N2CC[C@H]1C2 [Example 672]
C (EC1.5>25 μM) | ≥ 150% | – | – | – | O=C(Nc1ccccn1)N1c2nc(Cl)ccc2N2CC[C@H]1C2 [Example 258]
A (EC1.5<1 μM) | ≥ 150% | – | – | – | O=C(Nc1cccnc1)N1c2nc(-c3cccc(C(F)(F)F)c3)ccc2N2CCC1CC2 [Example 485]
B (EC1.5 1-25 μM) | ≥ 150% | – | – | – | O=C(Nc1cnccn1)N1c2nc(-c3cccc(N4CC[C@@H](F)C4)c3)ccc2N2CC[C@H]1C2 [Example 267]
– | – | ≥ 150% | – | – | COc1nccc(NC(=O)N2c3nc(-c4cccc(Cl)c4)ccc3N3CC[C@H]2C3)n1 [Example 50]
B (EC1.5 1-25 μM) | ≥ 150% | – | – | – | Cn1nccc1-c1ccc2c(n1)N(C(=O)Nc1cccnc1)[C@H]1CCN2C1 [Example 524]
– | – | ≥ 150% | – | A (EC1.5<1 μM) | Cc1nc(NC(=O)N2c3nc(-c4cccc(Cl)c4)ccc3N3CC[C@H]2C3)sc1C [Example 102]
– | – | ≥ 150% | A (EC1.5<1 μM) | – | O=C(Nc1ccncc1)N1c2nc(-c3cccc(C(F)(F)F)c3)ccc2N2CC[C@H]1C2 [Example 817]
– | – | ≥ 150% | C (EC1.5>25 μM) | – | O=C(NCCn1ccnc1)N1c2nc(-c3cccc(C(F)(F)F)c3)ccc2N2CC[C@H]1C2 [Example 661]
– | – | ≥ 150% | – | – | O=C(Nc1ccccn1)N1c2nc(-c3cccc(Cl)c3)ccc2N2CC[C@H]1C2 [Example 19]
A (EC1.5<1 μM) | ≥ 150% | – | – | – | N#Cc1cncc(-c2ccc3c(n2)N(C(=O)Nc2ccccn2)[C@H]2CCCN3C2)c1 [Example 557]
A (EC1.5<1 μM) | ≥ 150% | – | – | – | O=C(Nc1cccc(-c2cnco2)c1)N1c2nc(-c3cncc(F)c3)ccc2N2CCC1CC2 [Example 574]
– | – | ≥ 150% | – | B (EC1.5 1-25 μM) | O=C(Nc1cccnc1)N1c2nc(-c3cccc(N4CCCC4)c3)ccc2N2CC[C@H]1C2 [Example 192]
B (EC1.5 1-25 μM) | ≥ 150% | – | – | – | Cc1ccc(-c2ccc3c(n2)N(C(=O)Nc2cnccn2)[C@H]2CCN3C2)cn1 [Example 236]
A (EC1.5<1 μM) | ≥ 150% | – | – | – | CS(=O)(=O)c1cncc(-c2ccc3c(n2)N(C(=O)Nc2ccccn2)[C@H]2CCCN3C2)c1 [Example 375]
B (EC1.5 1-25 μM) | ≥ 150% | – | – | – | Cc1nc(C)c(-c2ccc3c(n2)N(C(=O)Nc2cccnc2)[C@H]2CCN3C2)s1 [Example 495]
B (EC1.5 1-25 μM) | ≥ 150% | – | – | – | N#Cc1ccccc1-c1ccc2c(n1)N(C(=O)Nc1cccnn1)[C@H]1CCCN2C1 [Example 426]
– | – | ≥ 150% | – | – | O=C(Nc1cnccn1)N1c2nc(-c3cccc(C(F)(F)F)c3)ccc2N2CC[C@H]1C2 [Example 10]
